Calls of active or inactive are those of the source. The calls are words filed in the database; no cut-off is given here.
Columns and labels:
Staphylococcus aureus [1] = assay: Antibacterial activity against methicillin-resistant Staphylococcus aureus ATCC 33591; assay type: functional
Staphylococcus aureus [2] = assay: Bactericidal activity against methicillin-resistant Staphylococcus aureus CGMCC1.12409 by CLSI based method; assay type: functional
Staphylococcus aureus [3] = assay: Bactericidal activity against methicillin-resistant Staphylococcus aureus ATCC 33591 by CLSI based method; assay type: functional
HeLa = assay: Cytotoxicity against human HeLa cells at 40 uM by CCK8 assay relative to control; assay type: toxicity, cell-based
Staphylococcus aureus [4] = assay: Induction of bacterial regrowth of Staphylococcus aureus CGMCC1.8721 at 4 to 8 times MIC measured after 24 hrs by time kill assay; assay type: functional, organism-based
Staphylococcus aureus [5] = assay: Induction of resistance development in Staphylococcus aureus CGMCC1.8721 at sub-lethal concentration following serial passages for 30 days; assay type: functional, organism-based; settings: time 30.0 day
Staphylococcus aureus [6] = assay: Antibacterial activity against Staphylococcus aureus CGMCC1.8721 in presence of Na+ (reference value: 0.5 ug/ml); assay type: functional
Staphylococcus aureus [7] = assay: Antibacterial activity against Staphylococcus aureus CGMCC1.8721 in presence of K+ (reference value: 0.5 ug/ml); assay type: functional
Staphylococcus aureus [8] = assay: Antibacterial activity against Staphylococcus aureus CGMCC1.8721 in presence of Zn2+ (reference value: 0.5 ug/ml); assay type: functional
Staphylococcus aureus [9] = assay: Antibacterial activity against Staphylococcus aureus CGMCC1.8721 in presence of Fe3+ (reference value: 0.5 ug/ml); assay type: functional
Staphylococcus aureus [10] = assay: Antibacterial activity against Staphylococcus aureus CGMCC1.8721 at 36.5 degreeC (reference value: 0.5 ug/ml); assay type: functional
Staphylococcus aureus [11] = assay: Antibacterial activity against methicillin-resistant Staphylococcus aureus ATCC 43300 in presence of Ca2+ (reference value: 0.5 ug/ml); assay type: functional
Staphylococcus aureus [12] = assay: Antibacterial activity against methicillin-resistant Staphylococcus aureus ATCC 43300 in presence of Mg2+ (reference value: 0.5 ug/ml); assay type: functional
Staphylococcus aureus [13] = assay: Antibacterial activity against methicillin-resistant Staphylococcus aureus ATCC 43300 in presence of Fe2+ (reference value: 0.5 ug/ml); assay type: functional
Staphylococcus aureus [14] = assay: Antibacterial activity against methicillin-resistant Staphylococcus aureus ATCC 43300 at pH 6.5 (reference value: 0.5 ug/ml); assay type: functional
Staphylococcus aureus [15] = assay: Antibacterial activity against methicillin-resistant Staphylococcus aureus ATCC 43300 at pH 8 (reference value: 0.5 ug/ml); assay type: functional
Staphylococcus aureus [16] = assay: Antibacterial activity against methicillin-resistant Staphylococcus aureus CGMCC1.12409 in presence of K+ (reference value: 0.5 ug/ml); assay type: functional
Staphylococcus aureus [17] = assay: Antibacterial activity against methicillin-resistant Staphylococcus aureus CGMCC1.12409 in presence of Ca2+ (reference value: 0.5 ug/ml); assay type: functional
Staphylococcus aureus [18] = assay: Antibacterial activity against methicillin-resistant Staphylococcus aureus CGMCC1.12409 in presence of Zn2+ (reference value: 0.5 ug/ml); assay type: functional
Staphylococcus aureus [19] = assay: Antibacterial activity against methicillin-resistant Staphylococcus aureus CGMCC1.12409 in presence of Fe2+ (reference value: 0.5 ug/ml); assay type: functional
Staphylococcus aureus [20] = assay: Antibacterial activity against methicillin-resistant Staphylococcus aureus CGMCC1.12409 at pH 6.5 (reference value: 0.5 ug/ml); assay type: functional
Staphylococcus aureus [21] = assay: Antibacterial activity against methicillin-resistant Staphylococcus aureus CGMCC1.12409 at pH 8 (reference value: 0.5 ug/ml); assay type: functional
Staphylococcus aureus [22] = assay: Antibacterial activity against methicillin-resistant Staphylococcus aureus CGMCC1.12409 at 36.5 degreeC (reference value: 0.5 ug/ml); assay type: functional
Staphylococcus aureus [23] = assay: Antibacterial activity against methicillin-resistant Staphylococcus aureus CGMCC1.12409 at 37.5 degreeC (reference value: 0.5 ug/ml); assay type: functional
Staphylococcus aureus [24] = assay: Antibacterial activity against methicillin-resistant Staphylococcus aureus ATCC 33591 in presence of Ca2+ (reference value: 1 ug/ml); assay type: functional
Staphylococcus aureus [25] = assay: Antibacterial activity against methicillin-resistant Staphylococcus aureus ATCC 33591 in presence of Fe3+ (reference value: 1 ug/ml); assay type: functional
Staphylococcus aureus [26] = assay: Antibacterial activity against methicillin-resistant Staphylococcus aureus ATCC 33591 in presence of H2PO4- (reference value: 1 ug/ml); assay type: functional
Staphylococcus aureus [27] = assay: Antibacterial activity against methicillin-resistant Staphylococcus aureus ATCC 33591 at pH 6.5 (reference value: 1 ug/ml); assay type: functional
Staphylococcus aureus [28] = assay: Antibacterial activity against methicillin-resistant Staphylococcus aureus ATCC 33591 at pH 8 (reference value: 1 ug/ml); assay type: functional
Staphylococcus aureus [29] = assay: Antibacterial activity against methicillin-resistant Staphylococcus aureus ATCC 33591 at 36.5 degreeC (reference value: 1 ug/ml); assay type: functional
Staphylococcus aureus [30] = assay: Antibacterial activity against methicillin-resistant Staphylococcus aureus ATCC 33591 at 37.5 degreeC (reference value: 1 ug/ml); assay type: functional
Staphylococcus aureus [31] = assay: Induction of membrane depolarization in Staphylococcus aureus CGMCC1.8721 by DiSC3(5) dye based analysis; assay type: functional, organism-based
Staphylococcus aureus [32] = assay: Induction of ROS accumulation in Staphylococcus aureus CGMCC1.8721 by DCFH-DA dye based analysis; assay type: functional, organism-based
Staphylococcus aureus [33] = assay: Antibacterial activity against Staphylococcus aureus CGMCC1.8721 in presence of LTA; assay type: functional, organism-based
Staphylococcus aureus [34] = assay: Induction of cell membrane damage in Staphylococcus aureus CGMCC1.8721 assessed as red fluorescence at 4 times MIC by SYTO9/PI staining based CLSM analysis; assay type: functional, organism-based
Staphylococcus aureus [35] = assay: Induction of morphological change in Staphylococcus aureus CGMCC1.8721 assessed as appearance of surface folds at MIC by […] SEM analysis; assay type: functional, organism-based
Staphylococcus aureus [36] = assay: Induction of morphological change in Staphylococcus aureus CGMCC1.8721 assessed as appearance of atrophy at MIC by […] SEM analysis; assay type: functional, organism-based
Staphylococcus aureus [37] = assay: Induction of morphological change in Staphylococcus aureus CGMCC1.8721 assessed as cell rupture at 4 times MIC by […] SEM analysis; assay type: functional, organism-based
Staphylococcus aureus [38] = assay: Induction of morphological change in Staphylococcus aureus CGMCC1.8721 assessed as leakage of intracellular components at 4 times MIC by […] SEM analysis; assay type: functional, organism-based
Staphylococcus aureus [39] = assay: Antibacterial activity against methicillin-resistant Staphylococcus aureus CGMCC1.12409 infected in mouse model assessed as reduction in abscesses size at 5 to 10 mg/kg measured for 5 days; assay type: functional, organism-based; settings: dose 5-10 mg/kg, time 5.0 day
Staphylococcus aureus [40] = assay: Antibacterial activity against methicillin-resistant Staphylococcus aureus CGMCC1.12409 infected in mouse model assessed as reduction in bacterial clones at 5 to 10 mg/kg measured for 5 days; assay type: functional, organism-based; settings: dose 5-10 mg/kg, time 5.0 day
Staphylococcus aureus [41] = assay: Antibacterial activity against methicillin-resistant Staphylococcus aureus CGMCC1.12409 infected in mouse model assessed as reduction in skin lession in subcutaneous tissues at 10 mg/kg measured for 5 days; assay type: functional, organism-based; settings: time 5.0 day
Staphylococcus aureus [42] = assay: Antibacterial activity against methicillin-resistant Staphylococcus aureus CGMCC1.12409 infected in mouse model assessed as reduction in abscesses in subcutaneous tissues at 10 mg/kg measured for 5 days; assay type: functional, organism-based; settings: time 5.0 day

## COc1ccc2[nH]c3c(CC[C@H](C)[C@H]4CC[C@H]5[C@@H]6[C@H](O)C[C@@H]7C[C@H](O)CC[C@]7(C)[C@H]6C[C@H](O)[C@]45C)[n+](Cc4ccc(Cl)cc4)ccc3c2c1.[Br-]
Staphylococcus aureus [1]
  MIC: 1 µg/mL
Staphylococcus aureus [2]
  MBC: 1 µg/mL
Staphylococcus aureus [3]
  MBC: 2 µg/mL
HeLa
  Activity: Non-toxic
Staphylococcus aureus [4]
  Activity: Not active; Compound Activity Was Higher Than That Of Vancomycin
Staphylococcus aureus [5]
  Activity: inactive
Staphylococcus aureus [6]
  MIC: 0.5 µg/mL
Staphylococcus aureus [7]
  MIC: 0.5 µg/mL
Staphylococcus aureus [8]
  MIC: 0.5 µg/mL
Staphylococcus aureus [9]
  MIC: 0.5 µg/mL
Staphylococcus aureus [10]
  MIC: 0.5 µg/mL
Staphylococcus aureus [11]
  MIC: 0.5 µg/mL
Staphylococcus aureus [12]
  MIC: 0.5 µg/mL
Staphylococcus aureus [13]
  MIC: 0.5 µg/mL
Staphylococcus aureus [14]
  MIC: 0.5 µg/mL
Staphylococcus aureus [15]
  MIC: 0.5 µg/mL
Staphylococcus aureus [16]
  MIC: 1 µg/mL
Staphylococcus aureus [17]
  MIC: 1 µg/mL
Staphylococcus aureus [18]
  MIC: 1 µg/mL
Staphylococcus aureus [19]
  MIC: 1 µg/mL
Staphylococcus aureus [20]
  MIC: 1 µg/mL
Staphylococcus aureus [21]
  MIC: 1 µg/mL
Staphylococcus aureus [22]
  MIC: 0.5 µg/mL
Staphylococcus aureus [23]
  MIC: 0.5 µg/mL
Staphylococcus aureus [24]
  MIC: 1 µg/mL
Staphylococcus aureus [25]
  MIC: 1 µg/mL
Staphylococcus aureus [26]
  MIC: 1 µg/mL
Staphylococcus aureus [27]
  MIC: 1 µg/mL
Staphylococcus aureus [28]
  MIC: 1 µg/mL
Staphylococcus aureus [29]
  MIC: 1 µg/mL
Staphylococcus aureus [30]
  MIC: 1 µg/mL
Staphylococcus aureus [31]
  Activity: Dose-dependent-effect
Staphylococcus aureus [32]
  Activity: Dose-dependent-effect
Staphylococcus aureus [33]
  Activity: Active
Staphylococcus aureus [34]
  Activity: Active
Staphylococcus aureus [35]
  Activity: Active
Staphylococcus aureus [36]
  Activity: Active
Staphylococcus aureus [37]
  Activity: Active
Staphylococcus aureus [38]
  Activity: Active
Staphylococcus aureus [39]
  Activity: Active
Staphylococcus aureus [40]
  Activity: Active
Staphylococcus aureus [41]
  Activity: Active
Staphylococcus aureus [42]
  Activity: Active

Reference: ChEMBL document CHEMBL6078723, “Novel steroidal β-carboline derivatives as promising antibacterial candidates against methicillin-resistant Staphylococcus aureus” (Eur J Med Chem, 2025)
